Assay results published in article doi:10.1101/2024.02.20.581179v1, “Regulated mRNA recruitment in dinoflagellates is reflected in hyper-variable mRNA spliced leaders and novel eIF4Es” (biorxiv, 2024).

Tests used:
Assay type in all cases: binding
mouse eIF4E-1 [1] = molecular target: T1, mouse eIF4E-1 (Mus musculus, UniProt P63073); experiment: SPR, Biacore T-200, steady state
T1 construct: N-terminal GST tag, E. coli, GST-fusion dimer, tag kept

eIF4E-2a = molecular target: T2, eIF4E-2a (Amphidinium carterae, UniProt A0A109QBD6); experiment: SPR, Biacore T-200, steady state
T2 construct: N-terminal GST tag (TEV site), E. coli, GST-fusion dimer, tag kept
T2 sequence (A0A109QBD6 1-255): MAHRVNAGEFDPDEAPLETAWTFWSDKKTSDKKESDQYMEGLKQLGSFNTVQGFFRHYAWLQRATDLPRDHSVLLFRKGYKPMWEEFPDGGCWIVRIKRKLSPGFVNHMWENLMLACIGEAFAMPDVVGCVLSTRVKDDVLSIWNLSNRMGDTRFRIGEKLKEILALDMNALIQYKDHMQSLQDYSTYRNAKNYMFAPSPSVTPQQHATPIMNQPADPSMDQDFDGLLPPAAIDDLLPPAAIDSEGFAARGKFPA
Source text: SPR, Biacore T-200, steady state on eIF4E-2a

eIF4E-1d1 [2] = molecular target: T3, eIF4E-1d1 (Amphidinium carterae, UniProt A0A0X9VJN7); experiment: SPR, Biacore T-200, steady state
T3 construct: gene eIF4E-1d; N-terminal GST tag (TEV site), E. coli, GST-fusion dimer, tag kept (SPR); S-tagged in vitro translated protein in bead assay
T3 sequence (A0A0X9VJN7 1-239): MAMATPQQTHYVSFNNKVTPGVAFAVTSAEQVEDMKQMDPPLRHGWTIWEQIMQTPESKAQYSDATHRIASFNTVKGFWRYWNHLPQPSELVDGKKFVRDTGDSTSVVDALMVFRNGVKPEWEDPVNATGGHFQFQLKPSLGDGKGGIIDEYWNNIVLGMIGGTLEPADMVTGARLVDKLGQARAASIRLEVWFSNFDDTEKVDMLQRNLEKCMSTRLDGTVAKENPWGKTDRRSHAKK

eIF4E-1a = molecular target: T4, eIF4E-1a (Amphidinium carterae, UniProt A0A0X9W7I2); experiment: SPR, Biacore T-200, steady state
T4 construct: N-terminal GST tag (TEV site), pGEX-4T(MCS)-TEV, E. coli Rosetta(DE3)pLysS, DTT treated, GST-fusion dimer by gel filtration; tag kept
T4 sequence (A0A0X9W7I2 1-233): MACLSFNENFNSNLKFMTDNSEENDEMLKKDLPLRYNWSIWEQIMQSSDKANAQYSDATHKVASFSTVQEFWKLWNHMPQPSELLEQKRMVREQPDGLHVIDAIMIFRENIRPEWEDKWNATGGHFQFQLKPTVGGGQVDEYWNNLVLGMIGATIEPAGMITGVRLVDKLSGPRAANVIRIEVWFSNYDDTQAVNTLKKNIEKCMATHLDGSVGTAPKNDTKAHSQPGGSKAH

eIF4E-1d1 [3] = molecular target: T3, eIF4E-1d1; experiment: SPR, Biacore T-200, kinetic fit
Source text: SPR, Biacore T-200, kinetic fit on eIF4E-1d1

mouse eIF4E-1 [4] = molecular target: T1, mouse eIF4E-1; experiment: SPR, Biacore T-200, kinetic fit
Source text: SPR, Biacore T-200, kinetic fit on mouse eIF4E-1

eIF4E-1d1 [5] = molecular target: T3, eIF4E-1d1; experiment: cap-Sepharose pull-down of […] in vitro translated protein; conditions: ligand immobilised on Sepharose; S-tagged protein; 25 mM HEPES/KOH pH 7.2, 150 mM KCl, 200 μM GTP, 4 °C
eIF4E-1c = molecular target: T5, eIF4E-1c (Amphidinium carterae, UniProt A0A0X9VF44); experiment: as above; conditions: ligand immobilised on Sepharose; S-tagged protein; 25 mM HEPES/KOH pH 7.2, 150 mM KCl, 200 μM GTP, 4 °C
T5 construct: N-terminal S-tag, pCITE-4a, in vitro transcription/translation in rabbit reticulocyte lysate, 35S-Met labelled
T5 sequence (A0A0X9VF44 1-244): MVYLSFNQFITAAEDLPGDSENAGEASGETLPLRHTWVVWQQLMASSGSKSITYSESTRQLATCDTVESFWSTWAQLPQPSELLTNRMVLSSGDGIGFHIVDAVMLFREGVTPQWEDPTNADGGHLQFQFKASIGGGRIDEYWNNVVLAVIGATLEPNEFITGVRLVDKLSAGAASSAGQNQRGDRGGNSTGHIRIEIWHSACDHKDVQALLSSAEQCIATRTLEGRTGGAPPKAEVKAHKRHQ

T1 sequence (P63073 2-217): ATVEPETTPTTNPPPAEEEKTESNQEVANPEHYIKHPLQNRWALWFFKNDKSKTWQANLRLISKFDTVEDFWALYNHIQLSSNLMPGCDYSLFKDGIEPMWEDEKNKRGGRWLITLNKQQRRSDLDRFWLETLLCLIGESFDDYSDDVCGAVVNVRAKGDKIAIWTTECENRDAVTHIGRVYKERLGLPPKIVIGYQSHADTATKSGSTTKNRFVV

Kd (mouse eIF4E-1 [1]) [µM]	Kd (eIF4E-2a) [µM]	Kd (eIF4E-1d1 [2]) [µM]	Kd (eIF4E-1a) [µM]	Kd (eIF4E-1d1 [3]) [µM]	Kd (mouse eIF4E-1 [4]) [µM]	Structure (SMILES)	cap-Sepharose pull-down of 35S in vitro translated protein (eIF4E-1d1 [5])	cap-Sepharose pull-down of 35S in vitro translated protein (eIF4E-1c)
316 ± 38	665 ± 19	1010 ± 110	1730 ± 3700	–	–	Nc1nc2c(ncn2[C@@H]2O[C@H](COP(=O)(O)OP(=O)(O)OP(=O)(O)OC[C@H]3O[C@@H](n4cnc5c(=O)[nH]c(N)nc54)[C@H](O)[C@@H]3O)[C@@H](O)[C@H]2O)c(=O)[nH]1 [GpppG]	–	–
–	–	–	10.8 ± 3.1	82.4	69.8	C[n+]1cn([C@@H]2O[C@H](COP(=O)(O)OP(=O)(O)OP(=O)(O)OC[C@H]3O[C@@H](n4ccc(N)nc4=O)[C@H](O)[C@@H]3O)[C@@H](O)[C@H]2O)c2nc(N)[nH]c(=O)c21 [m^7GpppC]	–	–
–	–	–	–	–	–	CN(C)c1nc2c(c(=O)[nH]1)[n+](C)cn2[C@@H]1O[C@H](COP(=O)(O)OP(=O)(O)OP(=O)(O)O)[C@@H](O)[C@H]1O [TMG]	eIF4E-1c and eIF4E-1d1 showed some affinity for the TMG cap analogue	eIF4E-1c and eIF4E-1d1 showed some affinity for the TMG cap analogue
59.7 ± 49.3	469 ± 220	34.5 ± 18.6	17.5 ± 4.68	–	–	C[n+]1cn([C@@H]2O[C@H](COP(=O)(O)OP(=O)(O)OP(=O)(O)OC[C@H]3O[C@@H](n4cnc5c(=O)[nH]c(N)nc54)[C@H](O)[C@@H]3O)[C@@H](O)[C@H]2O)c2nc(N)[nH]c(=O)c21 [m^7GpppG]	–	–
